# Laboratory results: patent US7238694B2, “Rifamycin imino derivatives effective against drug-resistant microbes” (Cumbre Pharmaceuticals, Inc., priority 2004, dated 2007)
# Experiments:
# Type in all cases: cell-based
# [1] = system: Staphylococcus aureus ATCC29213; assay: MIC, microbroth dilution (NCCLS); settings: rifS strain, Cation-Adjusted Mueller-Hinton Broth, 37° C., read-out: MIC
# [2] = system: Staphylococcus aureus ATCC29213 rpoB^H418Y; assay: microbe, parasite or virus in culture; settings: Staphylococcus aureus, ATCC29213; rifR strain; Cation-Adjusted Mueller-Hinton Broth, 37° C.; read-out: MIC
# [3] = system: Staphylococcus aureus MT1222 gyrA^A116E grlB^S80F; assay: microbe, parasite or virus in culture; settings: cipR strain, Cation-Adjusted Mueller-Hinton Broth, 37° C., read-out: MIC
# [4] = system: Staphylococcus epidermidis ATCC12228; assay: MIC, microbroth dilution (NCCLS); settings: rifS strain, Cation-Adjusted Mueller-Hinton Broth, 37° C., read-out: MIC
# [5] = system: Streptococcus pneumoniae ATCC6303; assay: MIC, microbroth dilution (NCCLS); settings: rifS strain, THY Broth with 1 mg/mL catalase, 5% CO2, 37° C., read-out: MIC
# [6] = system: Streptococcus pyogenes ATCC19615; assay: MIC, microbroth dilution (NCCLS); settings: rifS strain, THY Broth, 37° C., read-out: MIC
# [7] = system: Haemophilus influenzae ATCC10211; assay: MIC, microbroth dilution (NCCLS); settings: rifS strain, BHI Broth with NAD and hematin, 37° C., read-out: MIC
SMILES,MIC [1] [µg/mL],MIC [2] [µg/mL],MIC [3] [µg/mL],MIC [4] [µg/mL],MIC [5] [µg/mL],MIC [6] [µg/mL],MIC [7] [µg/mL]
"COc1c(N2CCC(C(C)NC3CCN(/N=C/c4c5c(O)c6c(O)c(C)c7c(c6c4O)C(=O)[C@@](C)(O/C=C/[C@H](OC)[C@@H](C)[C@@H](OC(C)=O)[C@H](C)[C@H](O)[C@H](C)[C@@H](O)[C@@H](C)/C=C/C=C(/C)C(=O)N5)O7)CC3)C2)c(F)cc2c(=O)c(C(=O)O)cn(C3CC3)c12 (mixture of isomers) [Example 41, 3-{4-[1-(3-Carboxy-1-cyclopropyl-6-fluoro-8-methoxy-4-oxo-1,4-dihydroquinolin-7-yl)-pyrrolidin-3-yl-ethylamino]-piperidin-1-yl-aminomethylenyl}-rifamycin SV]",0.008 to 1,0.06 to 16,0.008 to 0.125,0.008 to 0.1,0.008 to 0.06,0.008 to 0.03,0.125 to 4
"CO[C@H]1/C=C/O[C@@]2(C)Oc3c(C)c(O)c4c(O)c(c(/C=N/NC5CCN(c6c(F)cc7c(=O)c(C(=O)O)cn(C8CC8)c7c6Cl)C5)c(O)c4c3C2=O)NC(=O)/C(C)=C\C=C\[C@H](C)[C@H](O)[C@@H](C)[C@@H](O)[C@@H](C)[C@H](OC(C)=O)[C@@H]1C (mixture of isomers) [Example 6, (R/S)-3-[1-(8-chloro-3-carboxy-1-cyclopropyl-6-fluoro-4-oxo-1,4-dihydroquinolin-7-yl)-pyrrolidin-3-ylhydrazinomethylenyl]rifamycin SV]",0.008 to 1,0.06 to 16,0.008 to 0.125,0.008 to 0.1,0.008 to 0.06,0.008 to 0.03,0.125 to 4
"COc1c(N2CCN(/N=C/c3c4c(O)c5c(O)c(C)c6c(c5c3O)C(=O)[C@@](C)(O/C=C/[C@H](OC)[C@@H](C)[C@@H](OC(C)=O)[C@H](C)[C@H](O)[C@H](C)[C@@H](O)[C@@H](C)/C=C/C=C(/C)C(=O)N4)O6)C(C)C2)c(F)cc2c(=O)c(C(=O)O)cn(C3CC3)c12 (mixture of isomers) [Example 7, (R/S)-3-[4-(3-Carboxy-1-cyclopropyl-6-fluoro-8-methoxy-4-oxo-1,4-dihydroquinolin-7-yl)-2-methyl-piperazin-1-yl-aminomethylenyl]rifamycin SV]",0.008 to 1,0.06 to 16,0.008 to 0.125,0.008 to 0.1,0.008 to 0.06,0.008 to 0.03,0.125 to 4
"CCn1cc(C(=O)O)c(=O)c2cc(F)c(N3CCN(/N=C/c4c5c(O)c6c(O)c(C)c7c(c6c4O)C(=O)[C@@](C)(O/C=C/[C@H](OC)[C@@H](C)[C@@H](OC(C)=O)[C@H](C)[C@H](O)[C@H](C)[C@@H](O)[C@@H](C)/C=C/C=C(/C)C(=O)N5)O7)C(C)C3)c(F)c21 (mixture of isomers) [Example 8, (R/S)-3-[4-(3-Carboxy-1-ethyl-6,8-difluoro-8-4-oxo-1,4-dihydroquinolin-7-yl)-2-methyl-piperazin-1-yl-aminomethylenyl]rifamycin SV]",0.008 to 1,0.06 to 16,0.008 to 0.125,0.008 to 0.1,0.008 to 0.06,0.008 to 0.03,0.125 to 4
"CO[C@H]1/C=C/O[C@@]2(C)Oc3c(C)c(O)c4c(O)c(c(/C=N/NC5CCN(c6nc7c(cc6F)c(=O)c(C(=O)O)cn7-c6ccc(F)cc6F)C5)c(O)c4c3C2=O)NC(=O)/C(C)=C\C=C\[C@H](C)[C@H](O)[C@@H](C)[C@@H](O)[C@@H](C)[C@H](OC(C)=O)[C@@H]1C (mixture of isomers) [Example 9, (R/S)-3-[1-[3-Carboxy-1-(2,4-difluoro-phenyl)-6-fluoro-4-oxo-1,4-dihydro-[1,8]naphthyridin-7-yl]-pyrrolidinyl-3-hydrazinomethylenyl]rifamycin SV]",0.008 to 1,0.06 to 16,0.008 to 0.125,0.008 to 0.1,0.008 to 0.06,0.008 to 0.03,0.125 to 4
"CO[C@H]1/C=C/O[C@@]2(C)Oc3c(C)c(O)c4c(O)c(c(/C=N/N(C5CCN(C)CC5)C5CCN(c6cc7c(cc6F)c(=O)c(C(=O)O)cn7C6CC6)C5)c(O)c4c3C2=O)NC(=O)/C(C)=C\C=C\[C@H](C)[C@H](O)[C@@H](C)[C@@H](O)[C@@H](C)[C@H](OC(C)=O)[C@@H]1C (mixture of isomers) [Example 11, (R/S)-3-[1-(3-Carboxy-1-cyclopropyl-6-fluoro-4-oxo-1,4-dihydroquinolin-7-yl)-pyrrolidin-3-yl-N′-(1-methyl-piperidin-4-yl)-hydrazinomethylenyl]rifamycin SV]",0.008 to 1,0.06 to 16,0.008 to 0.125,0.008 to 0.1,0.008 to 0.06,0.008 to 0.03,0.125 to 4
"COc1c(N2CCN(/N=C/C3=C4NC(=O)/C(C)=C\C=C\[C@H](C)[C@H](O)[C@@H](C)[C@@H](O)[C@@H](C)[C@H](OC(C)=O)[C@H](C)[C@@H](OC)/C=C/O[C@@]5(C)Oc6c(C)c(O)c(c(c6C5=O)C3=O)C4=O)C(C)C2)c(F)cc2c(=O)c(C(=O)O)cn(C3CC3)c12 (mixture of isomers) [Example 12, (R/S)-3-[4-(3-Carboxy-1-cyclopropyl-6-fluoro-8-methoxy-4-oxo-1,4-dihydroquinolin-7-yl)-2-methylpiperazin-1-yl-aminomethylenyl]rifamycin S]",0.008 to 1,0.06 to 16,0.008 to 0.125,0.008 to 0.1,0.008 to 0.06,0.008 to 0.03,0.125 to 4
"CO[C@H]1/C=C/O[C@@]2(C)Oc3c(C)c(O)c4c(O)c(c(/C=N/N(C)C5CCN(c6cc7c(cc6F)c(=O)c(C(=O)O)cn7C6CC6)C5)c(O)c4c3C2=O)NC(=O)/C(C)=C\C=C\[C@H](C)[C@H](O)[C@@H](C)[C@@H](O)[C@@H](C)[C@H](OC(C)=O)[C@@H]1C (mixture of isomers) [Example 15, (R/S)-3-[1-(3-Carboxy-1-cyclopropyl-6-fluoro-4-oxo-1,4-dihydroquinolin-7-yl)-pyrrolidin-3-yl-N′-methylhydrazinomethylenyl]rifamycin SV]",0.008 to 1,0.06 to 16,0.008 to 0.125,0.008 to 0.1,0.008 to 0.06,0.008 to 0.03,0.125 to 4
COc1c(N2CCC(C3(N(C)C4CCN(/N=C/c5c6c(O)c7c(O)c(C)c8c(c7c5O)C(=O)[C@@](C)(O/C=C/[C@H](OC)[C@@H](C)[C@@H](OC(C)=O)[C@H](C)[C@H](O)[C@H](C)[C@@H](O)[C@@H](C)/C=C/C=C(/C)C(=O)N6)O8)CC4)CC3)C2)c(F)cc2c(=O)c(C(=O)O)cn(C3CC3)c12 (mixture of isomers) [Example 16],0.008 to 1,0.06 to 16,0.008 to 0.125,0.008 to 0.1,0.008 to 0.06,0.008 to 0.03,0.125 to 4
"CO[C@H]1/C=C/O[C@@]2(C)Oc3c(C)c(O)c4c(O)c(c(/C=N/N5CCC(N(C)C6(C7CCN(c8c(F)cc9c(=O)c(C(=O)O)cn(C%10CC%10)c9c8Cl)C7)CC6)CC5)c(O)c4c3C2=O)NC(=O)/C(C)=C\C=C\[C@H](C)[C@H](O)[C@@H](C)[C@@H](O)[C@@H](C)[C@H](OC(C)=O)[C@@H]1C (mixture of isomers) [Example 17, (R/S)-3-{[4-({1-[1-(3-Carboxy-8-chloro-1-cyclopropyl-6-fluoro-4-oxo-1,4-dihydro-quinolin-7-yl)-pyrrolidin-3-yl]-cyclopropyl}-methyl-amino)-piperidin-1-ylimino]-methyl}-rifamycin SV]",0.008 to 1,0.06 to 16,0.008 to 0.125,0.008 to 0.1,0.008 to 0.06,0.008 to 0.03,0.125 to 4
"COc1c(N2CCC(N/N=C/c3c4c(O)c5c(O)c(C)c6c(c5c3O)C(=O)[C@@](C)(O/C=C/[C@H](OC)[C@@H](C)[C@@H](OC(C)=O)[C@H](C)[C@H](O)[C@H](C)[C@@H](O)[C@@H](C)/C=C/C=C(/C)C(=O)N4)O6)C2)c(F)cc2c(=O)c(C(=O)O)cn(C3CC3)c12 (mixture of isomers) [Example 21, (R/S)-3-[1-(3-Carboxy-1-cyclopropyl-6-fluoro-8-methoxy-4-oxo-1,4-dihydroquinolin-7-yl)-pyrrolidinyl-3-hydrazino-methylenyl]-rifamycin SV]",0.008 to 1,0.06 to 16,0.008 to 0.125,0.008 to 0.1,0.008 to 0.06,0.008 to 0.03,0.125 to 4
